Consider 19 compounds from US11623919B2, “Heterocyclic P2X7 antagonists” (AXXAM S.P.A., priority 2017, dated 2023).

What all share (test): Screen Quest Fluo-8 No Wash Calcium Assay (Bz-ATP evoked Ca2+ influx, FLIPR)
Common to all, as to assay type: cell-based

Experiment [1] has as its target T1, P2X7 receptor (Mus musculus, UniProt Q9Z1M0).
T1 construct: mP2X7 (IC50; nM); other: mP2X7; HEK-293 cells stably transfected with P2X7 receptor, Bz-ATP at EC80, Fluo-8 NW; potency
T1 sequence (Q9Z1M0 1-595): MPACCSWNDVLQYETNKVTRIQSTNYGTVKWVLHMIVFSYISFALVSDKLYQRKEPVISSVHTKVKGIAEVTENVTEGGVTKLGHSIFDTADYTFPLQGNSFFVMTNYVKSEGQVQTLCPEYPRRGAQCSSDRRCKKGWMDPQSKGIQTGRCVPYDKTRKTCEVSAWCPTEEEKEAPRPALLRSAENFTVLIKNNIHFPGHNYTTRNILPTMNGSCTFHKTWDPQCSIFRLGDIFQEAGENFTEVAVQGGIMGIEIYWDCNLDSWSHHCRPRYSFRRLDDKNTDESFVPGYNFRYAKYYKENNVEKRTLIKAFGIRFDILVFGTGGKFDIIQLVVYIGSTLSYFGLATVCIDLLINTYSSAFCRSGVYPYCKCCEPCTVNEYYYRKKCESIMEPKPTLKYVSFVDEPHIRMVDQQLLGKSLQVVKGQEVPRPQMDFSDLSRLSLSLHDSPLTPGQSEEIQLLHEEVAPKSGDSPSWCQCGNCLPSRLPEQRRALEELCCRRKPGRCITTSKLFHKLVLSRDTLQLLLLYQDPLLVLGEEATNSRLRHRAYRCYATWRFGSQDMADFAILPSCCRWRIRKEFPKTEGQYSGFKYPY
The note with it: mP2X7; HEK-293 cells stably transfected with P2X7 receptor, Bz-ATP at EC80, Fluo-8 NW; potency ranges A-D. In outline: (§1)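 Compounds were added to Fluo-8-loaded P2X7-transfected HEK-293 cells 5 min before an EC80 Bz-ATP challenge, and Ca2+ influx was then recorded for 3 min. Buffer held 0.3 mM Ca2+ and no Mg2+. Inhibition was normalised to A438079, giving IC50 values.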

Experiment [2] addresses T2, P2X7 receptor (Rattus norvegicus, UniProt Q64663).
T2 construct: rP2X7 (IC50; nM); other: rP2X7; HEK-293 cells stably transfected with P2X7 receptor, Bz-ATP at EC80, Fluo-8 NW; potency
T2 sequence (Q64663 1-595): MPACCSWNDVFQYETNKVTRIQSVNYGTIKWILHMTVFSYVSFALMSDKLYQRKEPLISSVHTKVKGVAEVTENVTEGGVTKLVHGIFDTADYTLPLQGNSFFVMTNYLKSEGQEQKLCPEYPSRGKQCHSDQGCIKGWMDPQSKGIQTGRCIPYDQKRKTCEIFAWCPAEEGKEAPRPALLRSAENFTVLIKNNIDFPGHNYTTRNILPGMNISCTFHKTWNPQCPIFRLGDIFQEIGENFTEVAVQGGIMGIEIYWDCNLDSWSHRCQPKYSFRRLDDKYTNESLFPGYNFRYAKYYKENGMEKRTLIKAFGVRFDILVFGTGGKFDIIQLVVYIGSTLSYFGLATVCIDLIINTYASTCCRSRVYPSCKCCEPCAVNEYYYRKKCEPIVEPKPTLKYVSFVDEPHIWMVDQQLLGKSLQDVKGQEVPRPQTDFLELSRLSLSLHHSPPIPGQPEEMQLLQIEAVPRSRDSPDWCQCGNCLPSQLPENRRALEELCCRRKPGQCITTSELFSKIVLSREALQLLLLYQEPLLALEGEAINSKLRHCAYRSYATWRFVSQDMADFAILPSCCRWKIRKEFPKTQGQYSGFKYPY
The note with it: rP2X7; HEK-293 cells stably transfected with P2X7 receptor, Bz-ATP at EC80, Fluo-8 NW; potency ranges A-D. In outline:
as §1

For experiment [3], the target named is T3, P2X7 receptor (Homo sapiens, UniProt Q99572).
T3 sequence (Q99572 1-595): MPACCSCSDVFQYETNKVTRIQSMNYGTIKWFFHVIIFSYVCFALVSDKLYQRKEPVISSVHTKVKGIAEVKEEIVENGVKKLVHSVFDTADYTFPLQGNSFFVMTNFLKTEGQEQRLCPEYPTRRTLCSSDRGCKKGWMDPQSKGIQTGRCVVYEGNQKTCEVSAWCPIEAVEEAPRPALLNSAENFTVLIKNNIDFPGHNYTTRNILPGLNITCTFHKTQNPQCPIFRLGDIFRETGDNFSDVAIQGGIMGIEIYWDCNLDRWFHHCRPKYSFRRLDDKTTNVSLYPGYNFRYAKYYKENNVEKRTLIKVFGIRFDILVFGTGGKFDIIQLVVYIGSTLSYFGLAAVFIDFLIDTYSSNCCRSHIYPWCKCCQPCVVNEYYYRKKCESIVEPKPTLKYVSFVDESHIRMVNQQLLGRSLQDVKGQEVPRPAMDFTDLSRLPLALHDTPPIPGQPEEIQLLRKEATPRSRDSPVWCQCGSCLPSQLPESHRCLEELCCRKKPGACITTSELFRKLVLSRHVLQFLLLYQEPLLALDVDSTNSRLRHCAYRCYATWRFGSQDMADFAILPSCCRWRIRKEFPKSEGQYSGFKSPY
Set-up: hP2X7 (IC50; nM); other: hP2X7; HEK-293 cells stably transfected with P2X7 receptor, Bz-ATP at EC80, Fluo-8 NW; potency. The note with it: hP2X7; HEK-293 cells stably transfected with P2X7 receptor, Bz-ATP at EC80, Fluo-8 NW; potency ranges A-D. In outline:
as §1

Regarding `Cc1noc(C)c1Cc1noc(=O)n1Cc1ccc(F)cc1` [Example 208, 3-[(dimethyl-1,2-oxazol-4-yl)methyl]-4-[(4-fluorophenyl)methyl]-4,5-dihydro-1,2,4-oxadiazol-5-one], the IC50 on P2X7 receptor [1] is above 10000 nM; on P2X7 receptor [2], 1000 to 10000 nM; at P2X7 receptor [3] it was 1000 to 10000 nM.

With `O=c1onc(CN2CCOc3ccccc32)n1Cc1c(F)cccc1Cl` [Example 229, 4-[(2-chloro-6-fluorophenyl)methyl]-3-(3,4-dihydro-2H-1,4-benzoxazin-4-ylmethyl)-4,5-dihydro-1,2,4-oxadiazol-5-one], the IC50 at P2X7 receptor [1], on P2X7 receptor [2] and at P2X7 receptor [3] was 1000 to 10000 nM throughout.

For the compound `Cc1nn(C)c(C)c1Cc1noc(=O)n1CC1CCC(F)(F)CC1` [Example 215, 4-[(4,4-difluorocyclohexyl)methyl]-3-[(trimethyl-1H-pyrazol-4-yl)methyl]-4,5-dihydro-1,2,4-oxadiazol-5-one], the IC50 is 1000 to 10000 nM at P2X7 receptor [1], 200 to 1000 nM on P2X7 receptor [2] and below 200 nM at P2X7 receptor [3].

On to `Cn1ccnc1Cn1c(CC2CCC(F)(F)CC2)noc1=O` [Example 201, 3-[(4,4-difluorocyclohexyl)methyl]-4-[(1-methyl-1H-imidazol-2-yl)methyl]-4,5-dihydro-1,2,4-oxadiazol-5-one], for which the IC50 was above 10000 nM at P2X7 receptor [1], 1000 to 10000 nM on P2X7 receptor [2] and above 10000 nM at P2X7 receptor [3].

On to `Cc1ncccc1Cc1noc(=O)n1CC1CCCCC1` [Example 218, 4-(cyclohexylmethyl)-3-[(2-methylpyridin-3-yl)methyl]-4,5-dihydro-1,2,4-oxadiazol-5-one], for which the figures for the IC50 at P2X7 receptor [1], on P2X7 receptor [2] and on P2X7 receptor [3] were 1000 to 10000 nM, 200 to 1000 nM and 200 to 1000 nM, respectively.

With `COc1ccc(Cc2noc(=O)n2CC2CCCCC2)cc1` [Example 112, 4-(cyclohexylmethyl)-3-[(4-methoxyphenyl)methyl]-4,5-dihydro-1,2,4-oxadiazol-5-one], the half-maximal inhibitory concentration (IC50) lay within 1000 to 10000 nM at P2X7 receptor [1], 200 to 1000 nM on P2X7 receptor [2] and 1000 to 10000 nM at P2X7 receptor [3].

Take `O=c1onc(Cc2c(F)cccc2Cl)n1CC1CCC1` [Example 69, 3-[(2-chloro-6-fluorophenyl)methyl]-4-(cyclobutylmethyl)-4,5-dihydro-1,2,4-oxadiazol-5-one]: the half-inhibitory concentration (IC50) at P2X7 receptor [1] was in the range of 1000 to 10000 nM; on P2X7 receptor [2], 200 to 1000 nM; on P2X7 receptor [3], 1000 to 10000 nM.

As for `Cc1ccccc1Cn1c(Cc2c(F)cccc2Cl)noc1=O` [Example 27, 3-[(2-chloro-6-fluorophenyl)methyl]-4-[(2-methylphenyl)methyl]-4,5-dihydro-1,2,4-oxadiazol-5-one], the 50% inhibitory concentration (IC50) on P2X7 receptor [1], at P2X7 receptor [2] and on P2X7 receptor [3] was 1000 to 10000 nM each time.

For `O=c1onc(Cc2ccc(F)cc2F)n1Cc1c(F)cccc1Cl` [Example 15, 4-[(2-chloro-6-fluorophenyl)methyl]-3-[(2,4-difluorophenyl)methyl]-4,5-dihydro-1,2,4-oxadiazol-5-one], the IC50 at P2X7 receptor [1], on P2X7 receptor [2] and at P2X7 receptor [3] was 1000 to 10000 nM each time.

As to `O=c1onc(Cc2ccccc2)n1CC1CCC(F)(F)CC1` [Example 161, 3-benzyl-4-[(4,4-difluorocyclohexyl)methyl]-4,5-dihydro-1,2,4-oxadiazol-5-one], the IC50 lay in the range of 1000 to 10000 nM at P2X7 receptor [1], 200 to 1000 nM on P2X7 receptor [2] and 200 to 1000 nM at P2X7 receptor [3].

Take `CCC#CCn1c(Cc2c(F)cccc2Cl)noc1=O` [Example 90, 3-[(2-chloro-6-fluorophenyl)methyl]-4-(pent-2-yn-1-yl)-4,5-dihydro-1,2,4-oxadiazol-5-one]: the values for the IC50 on P2X7 receptor [1], at P2X7 receptor [2] and at P2X7 receptor [3] were above 10000 nM, 1000 to 10000 nM and 1000 to 10000 nM, respectively.

`Cc1nn(C)c(C)c1Cc1noc(=O)n1CC1CCCCC1` [Example 214, 4-(cyclohexylmethyl)-3-[(trimethyl-1H-pyrazol-4-yl)methyl]-4,5-dihydro-1,2,4-oxadiazol-5-one]: the IC50 at P2X7 receptor [1] was 1000 to 10000 nM; on P2X7 receptor [2] it was 200 to 1000 nM; on P2X7 receptor [3], below 200 nM.

Consider `CCOCn1c(Cc2c(F)cccc2Cl)noc1=O` [Example 101, 3-[(2-chloro-6-fluorophenyl)methyl]-4-(ethoxymethyl)-4,5-dihydro-1,2,4-oxadiazol-5-one], for which the IC50 on P2X7 receptor [1], at P2X7 receptor [2] and at P2X7 receptor [3] was above 10000 nM each time.

For `O=c1onc(Cc2ccc(F)cc2)n1Cc1ccc(F)cc1F` [Example 53, 4-[(2,4-difluorophenyl)methyl]-3-[(4-fluorophenyl)methyl]-4,5-dihydro-1,2,4-oxadiazol-5-one], the figures for the IC50 on P2X7 receptor [1], at P2X7 receptor [2] and at P2X7 receptor [3] were above 10000 nM, 200 to 1000 nM and above 10000 nM, respectively.

Regarding `O=c1onc(CC2CCC(F)(F)CC2)n1Cn1ccc(C(F)(F)F)n1` [Example 198, 3-[(4,4-difluorocyclohexyl)methyl]-4-{[3-(trifluoromethyl)-1H-pyrazol-1-yl]methyl}-1,2,4-oxadiazol-5(4H)-one], the IC50 is 1000 to 10000 nM on P2X7 receptor [1], 1000 to 10000 nM at P2X7 receptor [2] and above 10000 nM at P2X7 receptor [3].

`O=c1onc(Cc2ccc(F)cc2)n1Cc1ccc(F)cc1Cl` [Example 51, 4-[(2-chloro-4-fluorophenyl)methyl]-3-[(4-fluorophenyl)methyl]-4,5-dihydro-1,2,4-oxadiazol-5-one]: the half-inhibitory concentration (IC50) on P2X7 receptor [1], at P2X7 receptor [2] and on P2X7 receptor [3] was 1000 to 10000 nM throughout.

In the case of `CC1CC(F)(F)CCN1Cc1noc(=O)n1Cc1c(F)cccc1Cl` (stereo not drawn) [Example 226, 4-[(2-chloro-6-fluorophenyl)methyl]-3-[(4,4-difluoro-2-methylpiperidin-1-yl)methyl]-4,5-dihydro-1,2,4-oxadiazol-5-one], the IC50 at P2X7 receptor [1], at P2X7 receptor [2] and at P2X7 receptor [3] was below 200 nM in each case.

Turning to `Cc1ncccc1Cc1noc(=O)n1Cc1c(F)cccc1Cl` [Example 217, 4-[(2-chloro-6-fluorophenyl)methyl]-3-[(2-methylpyridin-3-yl)methyl]-4,5-dihydro-1,2,4-oxadiazol-5-one], the IC50 at P2X7 receptor [1], on P2X7 receptor [2] and on P2X7 receptor [3] was above 10000 nM throughout.

For the compound `CC(c1c(F)cccc1Cl)c1noc(=O)n1CC1CCCCC1` (stereo not drawn) [Example 122, 3-[1-(2-chloro-6-fluorophenyl)ethyl]-4-(cyclohexylmethyl)-4,5-dihydro-1,2,4-oxadiazol-5-one], the IC50 was above 10000 nM on P2X7 receptor [1], 1000 to 10000 nM on P2X7 receptor [2] and above 10000 nM at P2X7 receptor [3].

For orientation: IC50 means the concentration needed to halve the response being measured.
